Values of other authors, collected in patent US20100172982A1, “SUSTAINED RELEASE FORMULATIONS OF DIVALPROEX SODIUM” (SUN PHARMACEUTICAL INDUSTRIES LIMITED, priority 2007, published 2010).

Details: children

- elimination half-life: four and fourteen
SMILES: CCCC(CCC)C(=O)O [valproic acid, 2-propylpenatnoic acid]
